Measured values taken from PubChem BioAssay AID1845216 (Molecular Pharmacology Branch, DTP, NCI, 2023).

System: SW 982 tumor spheroid viability
Experiment: Anticancer human tumor SW 982 cell line growth inhibition;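 further: spheroids exposed to compound for 7 days before readout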
Settings: spheroids with HUVEC and MSC; for IC50: curve of first compound; for viability, T/C: stronger effect = lower value
Excerpt: Multicellular complex tumor spheroid response to DNA repair inhibitors in combination with DNA-damaging drugs
This study explores the anticancer activities of DNA-damaging drugs and inhibitors of DNA damage repair, both as single agents and in combinations. Complex tumor spheroids comprised of malignant cells, endothelial cells and mesenchymal stem cells served as an in vitro model for human solid tumors. This model system incorporates physiologically relevant features and patient-derived or established malignant cell lines with clinically relevant genetic alterations from many tumor types. Twenty-six patient-derived or established malignant cell lines were evaluated representing sarcoma, melanoma, small cell lung cancer (SCLC), non-small cell lung cancer (NSCLC), as well as bladder, ovarian and pancreatic cancers. The concentration ranges selected for each drug and investigational agent were based upon clinically achievable concentrations if the clinical Cmax of the agent was known.
Compounds. The drugs and compounds olaparib (NSC753686), talazoparib (NSC767125), berzosertib (NSC777718), elimusertib (NSC800525), nedisertib (NSC802822), VX-984 (NSC792969), AZD-1390 (NSC803789), temozolomide (NSC362856), topotecan (NSC609699), trabectedin (NSC813783), staurosporine (NSC755774), and gemcitabine (NSC613327) were obtained from the National Cancer Institute (NCI) Developmental Therapeutics Program Chemical Repository. The FDA-approved anticancer drug set is available from the Developmental Therapeutics Program at https://dtp.cancer.gov/organization/dscb/obtaining/available_plates.htm. […] The stock solutions were prepared in dimethyl sulfoxide (DMSO, Sigma-Aldrich, St. Louis, MO, cat. D2650) at 400-fold the tested concentration and stored at -70 degrees C. Prior to their use, the stock solutions were diluted in fresh medium and the final DMSO concentration in the assay was 0.25% (v/v). All drugs and investigational agents were tested over a range starting from a high concentration at or near the clinical Cmax and decreasing in half-log increments. If the clinical Cmax for an agent had not been determined, the highest concentration tested was 10 microM.
Cell Lines. The patient-derived cancer cell (PDC) lines: 156681-154-R-J1-PDC, 283228-195-R-J1-PDC, 287954-098-R-J1-PDC, 292921-168-R-J2-PDC, 349418-098-R-PDC, 425362-245-T-J1-PDC, 556581-035-R-J1-PDC, and BL0293-F563-PDC were received from the NCI Patient-Derived Models Repository (PDMR, https://pdmr.cancer.gov). The established cell lines HS-SY-2 (RRID:CVCL_8719), MPNST, and SYO-1 (RRID:CVCL_7146) were obtained from the Sloan Kettering Institute. The alveolar soft parts sarcoma cell line ASPS-1 (RRID:CVCL_S738) was established at the NCI and grown from internal seed stocks. The following established cell lines were purchased from the American Type Culture Collection (ATCC, Manassas, VA): G-401 (ATCC, cat. CRL-1441, RRID:CVCL_0270), SW982 (ATCC, cat. HTB-93, RRID:CVCL_1734), VA-ES-BJ (ATCC, cat. CRL-2138, RRID:CVCL_1785), NCI-H719 (ATCC, cat. CRL-5837, RRID:CVCL_1582), NCI-H196 (ATCC, cat. CRL-5823, RRID:CVCL_1509), NCI-H841 (ATCC, cat. CRL-5845, RRID:CVCL_1595), NCI-H1618 (ATCC, cat. CRL-5879, RRID:CVCL_1480), NCI-H1876 (ATCC, cat. CRL-5902, RRID:CVCL_1503), DMS 114 (ATCC, cat. CRL-2066; RRID:CVCL_1174), NCI-H211 (ATCC, cat. CRL-5824; RRID:CVCL_1529), and SW 1271 (ATCC, cat. CRL-2177, RRID:CVCL_1716). The small cell lung cancer cell line COR-L88 was purchased from Sigma-Aldrich (cat. 92031917-1VL, RRID:CVCL_1141). The non-small cell lung cancer cell lines NCI-H226 (RRID:CVCL_1544) and NCI-H322M (RRID:CVCL_1557) were established at the NCI and grown from internal seed stocks. Pooled donor human umbilical vein endothelial cells (HUVEC, Lonza, cat. CC-2519) and human mesenchymal stem cells (hMSC, Lonza, cat. PT-2501) were purchased from Lonza (Walkersville, MD).
Cell Culture. All cells were maintained in an incubator at 37 degrees C and 5% CO2 with 95% humidity. […]

[1] = second compound 0.003 µM, first compound 0.0949 µM
[2] = second compound 0.003 µM, first compound 0.3 µM
[3] = second compound 0.003 µM, first compound 0.949 µM
[4] = second compound 0.003 µM, first compound 3 µM
[5] = second compound 0.00949 µM, first compound 0.0949 µM
[6] = second compound 0.00949 µM, first compound 0.3 µM
[7] = second compound 0.00949 µM, first compound 0.949 µM
[8] = second compound 0.00949 µM, first compound 3 µM
[9] = second compound 0.03 µM, first compound 0.0949 µM
[10] = second compound 0.03 µM, first compound 0.3 µM
[11] = second compound 0.03 µM, first compound 0.949 µM
[12] = second compound 0.03 µM, first compound 3 µM
[13] = second compound 0.0949 µM, first compound 0.0949 µM
[14] = second compound 0.0949 µM, first compound 0.3 µM
[15] = second compound 0.0949 µM, first compound 0.949 µM
[16] = second compound 0.0949 µM, first compound 3 µM
[17] = second compound 0.3 µM, first compound 0.0949 µM
[18] = second compound 0.3 µM, first compound 0.3 µM
[19] = second compound 0.3 µM, first compound 0.949 µM
[20] = second compound 0.3 µM, first compound 3 µM

SMILES | IC50 (second compound 0.003 µM) | IC50 (second compound 0.00949 µM) | IC50 (second compound 0.03 µM) | IC50 (second compound 0.0949 µM) | IC50 (second compound 0.3 µM) | viability, T/C [1] | viability, T/C [2] | viability, T/C [3] | viability, T/C [4] | viability, T/C [5] | viability, T/C [6] | viability, T/C [7] | viability, T/C [8] | viability, T/C [9] | viability, T/C [10] | viability, T/C [11] | viability, T/C [12] | viability, T/C [13] | viability, T/C [14] | viability, T/C [15] | other results
Cn1ncnc1[C@H]1c2n[nH]c(=O)c3cc(F)cc(c23)N[C@@H]1c1ccc(F)cc1 + CC[C@@]1(O)C(=O)OCc2c1cc1n(c2=O)Cc2cc3c(CN(C)C)c(O)ccc3nc2-1 | > 3 µM | > 3 µM | > 3 µM | 1.64 µM | < 0.00949 µM | 83.4% | 82.4% | 86.5% | 64.9% | 82.5% | 84.8% | 92.1% | 62.9% | 70.6% | 73.5% | 62% | 57.7% | 60.9% | 59.5% | 58.2% | viability, T/C (second compound 0.003 µM, first compound 0.00949 µM): 93.5%; viability, T/C (second compound 0.003 µM, first compound 0.03 µM): 83.8%; viability, T/C (second compound 0.00949 µM, first compound 0.00949 µM): 91.5%; viability, T/C (second compound 0.00949 µM, first compound 0.03 µM): 81.9%; viability, T/C (second compound 0.03 µM, first compound 0.00949 µM): 70.7%; viability, T/C (second compound 0.03 µM, first compound 0.03 µM): 73.7%; viability, T/C (second compound 0.0949 µM, first compound 0.00949 µM): 60.6%; viability, T/C (second compound 0.0949 µM, first compound 0.03 µM): 56%; viability, T/C [16]: 40.9%; viability, T/C (second compound 0.3 µM, first compound 0.00949 µM): 43.5%; viability, T/C (second compound 0.3 µM, first compound 0.03 µM): 45.4%; viability, T/C [17]: 41.9%; viability, T/C [18]: 41.9%; viability, T/C [19]: 37.3%; viability, T/C [20]: 25.1%
O=C(c1cc(Cc2n[nH]c(=O)c3ccccc23)ccc1F)N1CCN(C(=O)C2CC2)CC1 + CC[C@@]1(O)C(=O)OCc2c1cc1n(c2=O)Cc2cc3c(CN(C)C)c(O)ccc3nc2-1 | 23.7 µM | 22.5 µM | 17.7 µM | 10.5 µM | < 0.0949 µM | 83.3% | 80.5% | 84.1% | 78.9% | 85.6% | 83.8% | 87.1% | 78% | 72.6% | 76.3% | 81.8% | 75.8% | 63.6% | 66.3% | 59.7% | viability, T/C (second compound 0.003 µM, first compound 9.49 µM): 66.6%; viability, T/C (second compound 0.003 µM, first compound 30 µM): 45.7%; viability, T/C (second compound 0.00949 µM, first compound 9.49 µM): 73.7%; viability, T/C (second compound 0.00949 µM, first compound 30 µM): 42.2%; viability, T/C (second compound 0.03 µM, first compound 9.49 µM): 60.5%; viability, T/C (second compound 0.03 µM, first compound 30 µM): 41.1%; viability, T/C [16]: 60.2%; viability, T/C (second compound 0.0949 µM, first compound 9.49 µM): 49.6%; viability, T/C (second compound 0.0949 µM, first compound 30 µM): 39.4%; viability, T/C [17]: 36.2%; viability, T/C [18]: 43.4%; viability, T/C [19]: 43.3%; viability, T/C [20]: 39.6%; viability, T/C (second compound 0.3 µM, first compound 9.49 µM): 31.1%; viability, T/C (second compound 0.3 µM, first compound 30 µM): 17.6%
